Data: article PMC8474606 (Brain, Behavior, & Immunity - Health, 2020)

Key:
Brain uptake index = format: in vivo, rat; conditions: data not shown
H+/OC antiporter = experiment: DPHM uptake in BMECs after inflammatory cytokine treatment; conditions: cytokine 0.1–30 ng/ml, 24 h; DPHM 30 μM, 30 s

Compound | Brain uptake of reference compound, control vs LPS rats (Brain uptake index) | Effect on DPHM uptake into BMECs (H+/OC antiporter)
O=C(O)Cc1ccccc1Nc1c(Cl)cccc1Cl [diclofenac] | similar | 
TNF-α |  | little effect
IL-1β: recombinant human interleukin-1β |  | little effect
